Data as given in ChEMBL document CHEMBL1158838, “Immunosuppressive iridoids from the fruits of Gardenia jasminoides” (J Nat Prod, 2005).
Active and inactive are the calls of the source. The rule behind the calls is not given here.

Tests used:
T-cell [1] = assay: Immunosuppressive activity against human peripheral blood T cells assessed as inhibition of PMA and anti-CD28 monoclonal antibody-costimulated IL2 secretion at 50 ug/ml by ELISA; format: functional, cell-based
T-cell [2] = assay: Immunosuppressive activity against human peripheral blood T cells assessed as inhibition of PMA and anti-CD28 monoclonal antibody-costimulated IL2 secretion at 100 ug/ml by ELISA; format: functional, cell-based

COC(=O)C1=CO[C@@H](O[C@@H]2O[C@H](CO)[C@@H](O)[C@H](O)[C@H]2O)[C@@H]2C(CO)=CC[C@H]12
Activity (T-cell [1]): Active | Activity (T-cell [2]): Active

C[C@]1(O)C[C@H](O)[C@@H]2C(C=O)=CO[C@@H](O[C@@H]3O[C@H](CO)[C@@H](O)[C@H](O)[C@H]3O)[C@@H]21
Activity (T-cell [1]): Active | Activity (T-cell [2]): Active

C[C@]1(O)C[C@@H](O)[C@@H]2C(C(=O)O)=CO[C@@H](O[C@@H]3O[C@H](CO)[C@@H](O)[C@H](O)[C@H]3O)[C@@H]21
Activity (T-cell [1]): Active | Activity (T-cell [2]): Active

COC(=O)C1=CO[C@@H](O[C@@H]2O[C@H](CO)[C@@H](O)[C@H](O)[C@H]2O)[C@@H]2C(CO)=C[C@@H](O)[C@H]12
Activity (T-cell [2]): Active

COC(=O)C1=CO[C@@H](O[C@@H]2O[C@H](CO)[C@@H](O)[C@H](O)[C@H]2O)[C@@H]2C(CO)=C[C@H](O)[C@H]12
Activity (T-cell [1]): Active | Activity (T-cell [2]): Active

COC(=O)C1=CO[C@@H](O[C@@H]2O[C@H](CO[C@@H]3O[C@H](CO)[C@@H](O)[C@H](O)[C@H]3O)[C@@H](O)[C@H](O)[C@H]2O)[C@@H]2C(CO)=CC[C@H]12
Activity (T-cell [2]): Active
